“Also recorded” adds a separate entry of the source.
Assays:
p57 (KIP2) = experiment: Western blot of p57 in OSC2 oral carcinoma cells; format: cell-based, human
Method: Cell treatments. For 24 hours treatments, exponentially growing cells with 40% confluency (to minimize differentiation and spontaneous apoptosis) were either maintained in 50 μM EGCG (2.29 mg/100 ml) or 0.2 mg/ml of GTPPs in tissue culture flasks (25 cm^2). Control flasks contained cells without any treatment. To test whether BaP or NNK interfere with the induction of p57, the human keratinocytes were treated with 0.12 μM BaP, or 10 μM NNK, either alone or in combination with 50 μM EGCG. To examine the time course of p57 induction, cells were treated with 50 μM EGCG and harvested for Western analysis at 30 minutes, 2 hours, 6 hours, and 24 hours. The human keratinocytes were treated when the cell density reached 85-90% confluency (to mimic the epithelium).
In a parallel series of experiments, treatment with EGCG was performed with 30 micrograms per milliliter (μg/ml) cycloheximide added to the keratinocyte media 30 minutes prior to the addition of EGCG. The dose-response experiments were performed using EGCG concentrations at 30, 50 100, and 200 μM in the culture media for 24 hours.
Western blot analysis. […] The concentration of protein in each sample was determined using the BioRad DC Protein Assay and spectrophotometry. […]

caspase 3 = experiment: Caspase 3 activity assay, normal human epidermal keratinocytes; format: cell-based; conditions: EGCG 0 to 200 μM or 0.2 mg/ml GTPPs, 24 h
Method: (§1) Caspase 3 activity assay. The Caspase 3 Apoptosis Detection Kit was purchased from Santa Cruz Biotech. Inc. In a 24 well tissue culture plate, 10^5 cells/well of control or treated cells in triplicates were plated. […] To each well, 100 μl of 2×reaction buffer was added with 10 mM DTT. Finally, 5 μl of DEVD-AFC substrate was added to each well containing cell lysates. The reaction mixtures were incubated for 1 hour at 37° C. The caspase 3 activity in each well was measured using a fluorescence plate reader set for 405 nanometer (nm) excitation and 505 nm emission.
as §1, with “of” for “of control or treated”, “[…]” for “10 mM”, “fluorescence microplate” for “fluorescence plate”, “405 nm” for “405 nanometer (nm)”
Caspase 3 activity assay. […] The reaction mixtures were incubated for 1 hour at 37° C., and caspase 3 activity in each well was measured using a fluorescence micro-plate reader at a wavelength of 405 nm for excitation and 505 nm for emission.

[1] = system: normal human primary epidermal keratinocytes; experiment: BrdU incorporation assay, exponentially growing keratinocytes; format: cell-based; conditions: increasing EGCG or 0.2 mg/ml GTP
Excerpt: Analysis of DNA synthesis using the BrdU incorporation method. The BrdU cell proliferation kit was purchased from Oncogene Research Products (Boston, Mass.). […] Experiments were repeated three times in triplicate for each experiment.

p21/WAF1 = experiment: Apoptosis macroarray, p21/WAF1 mRNA in NHEK; format: cell-based, human; conditions: 100 μM EGCG
Method: To identify additional factors those suppress EGCG -induced apoptosis and facilitate cell differentiation in NHEK, exponentially growing NHEK (Cambrex, Baltimore, Md.) were exposed to 100 μM EGCG for 0, 2, 6 and 24 hours, prior to total RNA isolation using the Qiagen RNeasy mini kit (Valencia, Calif.), which was followed by RT-PCR labeling and hybridization with the Human Apoptosis Macroarray membrane (Sigma-Genosys, The Woodlands, Tex.). Total cell lysates also were collected following a variety of EGCG treatments. The protein levels for caspase 14 and p21 were determined by immuno-blotting using antibodies specific for caspase 14 and p21 (Santa Cruz Biotechnology, Santa Cruz, Calif.).
Normal human epidermal keratinocytes (NHEK; Cambrex), and oral squamous cell carcinoma (OSC2) cells, originally from gingival tissue, were compared. Exponentially growing cells were exposed to 50 or 100 μM EGCG for 0 hours, 2 hours, 6 hours or 24 hours. Cells were harvested for total RNA, which was examined by apoptosis macroarrays (Sigma Genosys), followed by phosphorimagery and data analysis (GeneSpring). Protein production of expressed genes was confirmed by Western blotting of whole cell lysates.

In the case of `O=C(O[C@@H]1Cc2c(O)cc(O)cc2O[C@@H]1c1cc(O)c(O)c(O)c1)c1cc(O)c(O)c(O)c1` [EGCG, (−)-epigallocatechin-3-gallate], the p57 levels (p57 (KIP2); 50 μM EGCG or 0.2 mg/ml GTPPs, 24 h) is reported as “remained unchanged”, the “p57 expression, time course and dose response” value (p57 (KIP2); EGCG at any time point or concentration) is reported as “failed to elevate p57 expression” and the “caspase 3 activity” value (caspase 3) is reported as “only exhibited basal levels of caspase 3 activities; also recorded: not significantly affected”. The BrdU incorporation [1] was “slight increase of BrdU incorporation”, the “p21 mRNA level, of untreated control” value (p21/WAF1; 2 hours) was 70.3% and the “p21 mRNA level, of untreated control” value (p21/WAF1; 6 hours) was 50.4%. For the same molecule, the “p21 mRNA level, of control” value (p21/WAF1; 24 hours) was 32.7%.
